Reference: the NIST ThermoML archive (doi:10.1021/je5006938)
Numbers after ± are expanded uncertainties.

Details: Liquid, Closed cell (Static) method

## FC(F)=C(F)C(F)(F)F [hexafluoropropene]
268.13 K
  vapor or sublimation pressure: 278.57 ± 1.7 kPa
278.14 K
  vapor or sublimation pressure: 394.08 ± 1.9 kPa
288.14 K
  vapor or sublimation pressure: 542.58 ± 2.2 kPa
298.14 K
  vapor or sublimation pressure: 729.82 ± 2.6 kPa
308.19 K
  vapor or sublimation pressure: 963.24 ± 3.2 kPa
318.22 K
  vapor or sublimation pressure: 1251.2 ± 3.6 kPa

## FC(F)(F)C1(F)OC1(F)F (configuration not stated) [2,2,3-trifluoro-3-(trifluoromethyl)oxirane]
268.13 K
  vapor or sublimation pressure: 258.47 ± 1.6 kPa
278.13 K
  vapor or sublimation pressure: 365.66 ± 1.8 kPa
288.15 K
  vapor or sublimation pressure: 503.71 ± 2.1 kPa
298.17 K
  vapor or sublimation pressure: 678.24 ± 2.5 kPa
308.2 K
  vapor or sublimation pressure: 894.42 ± 3 kPa
318.21 K
  vapor or sublimation pressure: 1160.2 ± 3.4 kPa
